# Test results published in patent US20240139333A1, “2,6-DICHLOROPHENYL ESTER COMPOUNDS AND USE THEREOF” (Fusion Pharmaceuticals Inc., priority 2021, published 2024).
# Legend:
# DMSO stability study = format: physicochemical
# Experimental: To a 4 mL scintillation vial containing Compound A-E (in respective experiments; 4 mg) was added a stir bar followed by 500 μL of anhydrous dimethyl sulfoxide and was allowed to stir at room temperature (22±2° C.) for 4 hours. Timed aliquots at time (T)=15, 30, 60, 120 and 240 minutes were taken, dissolved in water to achieve 2% DMSO composition and analyzed by HPLC-MS using elution method 1 (Table 5).
# [1] = Temperature stability study in H2O; format: physicochemical
# Experimental: (§1) 20° C.: To a 4 mL scintillation vial containing Compound A-E (in respective experiments; 0.8 mg) was added 4 mL of HPLC grade water to create a 0.2 mg/mL solution. 2 mL of this solution was added to a 2 mL HPLC vial and placed in the auto sampler of an HPLC-MS at 20° C. Timed aliquots at time (T)=15, 30, 60, 120, 240 and 480 minutes were taken and analyzed by HPLC-MS using elution method 1 (Table 4).
# 50° C.: To a 4 mL scintillation vial containing Compound A-E (in respective experiments; 0.8 mg) was added a stir bar followed by 4 mL of HPLC grade water to create a 0.2 mg/mL solution. The vial was capped and allowed to stir in a 50° C. oil bath for 8 hours. Timed aliquots at time (T) =15, 30, 60, 120, 240 and 480 minutes were taken and analyzed by HPLC-MS using elution method 1 (Table 4).
# pH stability study = format: physicochemical; details: 20° C.
# Experimental: as §1, with “To” for “20° C.: To”, “either a pH 3, pH 5 pH 7 or pH 9 buffer” for “HPLC grade water”, “3). […]” for “4).”
# pH 3 Buffer: Citric acid/Na2HPO4 (79.45 mL 0.1 M-citric acid and 20.55 mL 0.2-Na2HPO4) pH 5 Buffer: Citric acid/Na2HPO4 (48.50 mL 0.1 M-citric acid and 51.50 mL 0.2-Na2HPO4) pH 7 Buffer: Citric acid/Na2HPO4 (17.65 mL 0.1 M-citric acid and 82.35 mL 0.2-Na2HPO4) pH 9 Buffer: Sodium Carbonate/Sodium Bicarbonate (10 mL 0.1 M-Na2CO3 and 90 mL 0.1-NaHCO3)
# [2] = Comparative active ester reactivity study with HOA nucleophile (N-hydroxy-N-methylbenzamide); details: N-Hydroxy-N-methylbenzamide 1 eq., 22±2° C.
# Experimental: (§2) General Experimental Protocol for Comparative Active Ester Reactivity Study with HOPO or HOA Nucleophiles
# (§3) To a 4 mL scintillation vial containing Compound A-E (in respective experiments; 1 eq.) was added a stir bar followed by 150 μL of HPLC grade acetonitrile. In another 4 mL scintillation vial containing a respective nucleophile (1 eq.) was added 280 μL HPLC grade water. The solutions were combined and allowed to stir at room temperature (22±2° C.) for 4 hours. Timed aliquots at time (T)=15, 30, 60, 120 and 240 minutes were taken and analyzed by HPLC-MS using elution method 1 (Table 1).
# [3] = Comparative active ester reactivity study with HOPO nucleophile; details: 1,2-HOPO 1 eq., 22±2° C.
# Experimental: as §2, §3
# [4] = Nucleophilic reactivity study with L-Lysine; details: L-Lysine 5 equiv, 22±2° C.
# Experimental: General Experimental Protocol for Nucleophilic Reactivity Study with L-Lysine
# To a 4 mL scintillation vial containing Compound A-E (in respective experiments; 1 eq.) was added a stir bar followed by 70 μL of HPLC grade acetonitrile. In another 4 mL scintillation vial containing L-Lysine monohydrochloride (5 eq.) was added 130 μL HPLC grade water followed by diisopropylethylamine (5 eq.). The solutions were combined and allowed to stir at room temperature (22±2° C.). Timed aliquots at time (T)=15, 30, 60 and 120 minutes were taken and analyzed by HPLC-MS using elution method 1 (Table 2).
# [5] = Comparative active ester reactivity study with HOA nucleophile (benzhydroxamic acid); details: Benzhydroxamic Acid 1 eq., 22±2° C.
# Experimental: as §2, §3
smiles,measurement,setting,value
"O=C(CCc1cccnc1)Oc1c(F)cccc1F [Compound B, 2,6-Difluorophenyl-3-(pyridin-3-yl)propanoate]",% Active Ester Remaining in DMSO at 22 ± 2° C.,DMSO stability study; 15 min,99.89%
same,% Active Ester Remaining in DMSO at 22 ± 2° C.,DMSO stability study; 30 min,99.81%
same,% Active Ester Remaining in DMSO at 22 ± 2° C.,DMSO stability study; 60 min,99.79%
same,% Active Ester Remaining in DMSO at 22 ± 2° C.,DMSO stability study; 120 min,99.78%
same,% Active Ester Remaining in DMSO at 22 ± 2° C.,DMSO stability study; 240 min,99.46%
same,% Remaining,"[1]; 20° C., 15 min",99.63%
same,% Remaining,"[1]; 20° C., 30 min",99.20%
same,% Remaining,"[1]; 20° C., 60 min",98.92%
same,% Remaining,"[1]; 20° C., 120 min",98.12%
same,% Remaining,"[1]; 20° C., 240 min",96.98%
same,% Remaining,"[1]; 20° C., 480 min",95.14%
same,% Remaining,"[1]; 50° C., 15 min",97.57%
same,% Remaining,"[1]; 50° C., 30 min",92.71%
same,% Remaining,"[1]; 50° C., 60 min",89.62%
same,% Remaining,"[1]; 50° C., 120 min",85.20%
same,% Remaining,"[1]; 50° C., 240 min",79.93%
same,% Remaining,"[1]; 50° C., 480 min",68.06%
same,% Remaining,"pH stability study; pH 3 buffer, 15 min",100%
same,% Remaining,"pH stability study; pH 3 buffer, 30 min",99.56%
same,% Remaining,"pH stability study; pH 3 buffer, 60 min",99.19%
same,% Remaining,"pH stability study; pH 3 buffer, 120 min",98.69%
same,% Remaining,"pH stability study; pH 3 buffer, 240 min",97.41%
same,% Remaining,"pH stability study; pH 3 buffer, 480 min",95.05%
same,% Remaining,"pH stability study; pH 5 buffer, 15 min",100%
same,% Remaining,"pH stability study; pH 5 buffer, 30 min",99.50%
same,% Remaining,"pH stability study; pH 5 buffer, 60 min",99.05%
same,% Remaining,"pH stability study; pH 5 buffer, 120 min",98.27%
same,% Remaining,"pH stability study; pH 5 buffer, 240 min",96.36%
same,% Remaining,"pH stability study; pH 5 buffer, 480 min",92.97%
same,% Remaining,"pH stability study; pH 7 buffer, 15 min",99.35%
same,% Remaining,"pH stability study; pH 7 buffer, 30 min",98.45%
same,% Remaining,"pH stability study; pH 7 buffer, 60 min",97.44%
same,% Remaining,"pH stability study; pH 7 buffer, 120 min",95.40%
same,% Remaining,"pH stability study; pH 7 buffer, 240 min",91.66%
same,% Remaining,"pH stability study; pH 7 buffer, 480 min",84.15%
same,% Remaining,"pH stability study; pH 9 buffer, 15 min",78.39%
same,% Remaining,"pH stability study; pH 9 buffer, 30 min",65.31%
same,% Remaining,"pH stability study; pH 9 buffer, 60 min",54.47%
same,% Remaining,"pH stability study; pH 9 buffer, 120 min",38.67%
same,% Remaining,"pH stability study; pH 9 buffer, 240 min",19.98%
same,% Remaining,"pH stability study; pH 9 buffer, 480 min",5.01%
same,% Active Ester Remaining,[2]; 15 min,91.32%
same,% Active Ester Remaining,[2]; 30 min,84.96%
same,% Active Ester Remaining,[2]; 60 min,73.90%
same,% Active Ester Remaining,[2]; 120 min,56.72%
same,% Active Ester Remaining,[2]; 240 min,35.97%
same,% Active Ester Remaining,[3]; 15 min,98.85%
same,% Active Ester Remaining,[3]; 30 min,96.23%
same,% Active Ester Remaining,[3]; 60 min,90.85%
same,% Active Ester Remaining,[3]; 120 min,84.98%
same,% Active Ester Remaining,[3]; 240 min,69.55%
same,% Active Ester Remaining,[4]; 15 min,0.20%
same,% Active Ester Remaining,[4]; 30 min,0%
same,% Active Ester Remaining,[5]; 15 min,81.80%
same,% Active Ester Remaining,[5]; 30 min,69.62%
same,% Active Ester Remaining,[5]; 60 min,56.57%
same,% Active Ester Remaining,[5]; 120 min,42.81%
same,% Active Ester Remaining,[5]; 240 min,28.60%
"O=C(CCc1cccnc1)Oc1ccc([N+](=O)[O-])cc1 [Compound D, 4-Nitrophenyl-3-(pyridin-3-yl)propanoate]",% Active Ester Remaining in DMSO at 22 ± 2° C.,DMSO stability study; 15 min,99.35%
same,% Active Ester Remaining in DMSO at 22 ± 2° C.,DMSO stability study; 30 min,98.99%
same,% Active Ester Remaining in DMSO at 22 ± 2° C.,DMSO stability study; 60 min,99.29%
same,% Active Ester Remaining in DMSO at 22 ± 2° C.,DMSO stability study; 120 min,99.65%
same,% Active Ester Remaining in DMSO at 22 ± 2° C.,DMSO stability study; 240 min,99.31%
same,% Remaining,"[1]; 20° C., 15 min",97.54%
same,% Remaining,"[1]; 20° C., 30 min",96.41%
same,% Remaining,"[1]; 20° C., 60 min",95.69%
same,% Remaining,"[1]; 20° C., 120 min",94.78%
same,% Remaining,"[1]; 20° C., 240 min",93.59%
same,% Remaining,"[1]; 20° C., 480 min",91.31%
same,% Remaining,"[1]; 50° C., 15 min",86.19%
same,% Remaining,"[1]; 50° C., 30 min",77.18%
same,% Remaining,"[1]; 50° C., 60 min",72.58%
same,% Remaining,"[1]; 50° C., 120 min",67.54%
same,% Remaining,"[1]; 50° C., 240 min",65.59%
same,% Remaining,"[1]; 50° C., 480 min",66.22%
same,% Remaining,"pH stability study; pH 3 buffer, 15 min",100%
same,% Remaining,"pH stability study; pH 3 buffer, 30 min",99.74%
same,% Remaining,"pH stability study; pH 3 buffer, 60 min",99.57%
same,% Remaining,"pH stability study; pH 3 buffer, 120 min",99.21%
same,% Remaining,"pH stability study; pH 3 buffer, 240 min",98.55%
same,% Remaining,"pH stability study; pH 3 buffer, 480 min",97.20%
same,% Remaining,"pH stability study; pH 5 buffer, 15 min",99.83%
same,% Remaining,"pH stability study; pH 5 buffer, 30 min",99.54%
same,% Remaining,"pH stability study; pH 5 buffer, 60 min",99.19%
same,% Remaining,"pH stability study; pH 5 buffer, 120 min",98.63%
same,% Remaining,"pH stability study; pH 5 buffer, 240 min",97.52%
same,% Remaining,"pH stability study; pH 5 buffer, 480 min",94.89%
same,% Remaining,"pH stability study; pH 7 buffer, 15 min",99.11%
same,% Remaining,"pH stability study; pH 7 buffer, 30 min",98.00%
same,% Remaining,"pH stability study; pH 7 buffer, 60 min",96.59%
same,% Remaining,"pH stability study; pH 7 buffer, 120 min",94.83%
same,% Remaining,"pH stability study; pH 7 buffer, 240 min",89.25%
same,% Remaining,"pH stability study; pH 7 buffer, 480 min",78.56%
same,% Remaining,"pH stability study; pH 9 buffer, 15 min",83.05%
same,% Remaining,"pH stability study; pH 9 buffer, 30 min",61.77%
same,% Remaining,"pH stability study; pH 9 buffer, 60 min",42.40%
same,% Remaining,"pH stability study; pH 9 buffer, 120 min",23.66%
same,% Remaining,"pH stability study; pH 9 buffer, 240 min",14.96%
same,% Remaining,"pH stability study; pH 9 buffer, 480 min",10.31%
same,% Active Ester Remaining,[2]; 15 min,95.63%
same,% Active Ester Remaining,[2]; 30 min,90.98%
same,% Active Ester Remaining,[2]; 60 min,83.40%
same,% Active Ester Remaining,[2]; 120 min,65.46%
same,% Active Ester Remaining,[2]; 240 min,41.73%
same,% Active Ester Remaining,[3]; 15 min,99.18%
same,% Active Ester Remaining,[3]; 30 min,96.81%
same,% Active Ester Remaining,[3]; 60 min,93.29%
same,% Active Ester Remaining,[3]; 120 min,85.25%
same,% Active Ester Remaining,[3]; 240 min,75.07%
same,% Active Ester Remaining,[4]; 15 min,8.34%
same,% Active Ester Remaining,[4]; 30 min,0%
same,% Active Ester Remaining,[5]; 15 min,96.49%
same,% Active Ester Remaining,[5]; 30 min,84.28%
same,% Active Ester Remaining,[5]; 60 min,74.58%
same,% Active Ester Remaining,[5]; 120 min,57.07%
same,% Active Ester Remaining,[5]; 240 min,34.21%
